This passage reports IC50 results from US10961231B2, “NTCP inhibitors” (National Institute of Biological Sciences, Beijing, priority 2018, dated 2021).

The first experiment deals with T1, NTCP (Homo sapiens, UniProt Q14973).
T1 sequence (Q14973 1-349): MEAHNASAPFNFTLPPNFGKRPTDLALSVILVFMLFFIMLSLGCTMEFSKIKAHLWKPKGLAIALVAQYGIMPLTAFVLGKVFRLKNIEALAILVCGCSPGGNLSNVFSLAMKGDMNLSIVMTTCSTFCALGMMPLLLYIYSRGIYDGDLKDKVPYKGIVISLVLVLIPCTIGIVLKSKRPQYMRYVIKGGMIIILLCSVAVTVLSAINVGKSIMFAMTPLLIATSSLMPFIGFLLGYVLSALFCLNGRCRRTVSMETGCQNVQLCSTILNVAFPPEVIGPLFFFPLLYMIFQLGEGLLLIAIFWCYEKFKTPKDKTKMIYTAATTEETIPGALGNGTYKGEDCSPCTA
As to the kind of experiment: [3H]-TCA uptake assay (NTCP inhibition). Format: cell-based. Conditions: IC50, given as a range, marked * (asterisk not explained). Summed up:
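Read-out is liquid scintillation counting of Triton X-100 lysates after 15 min, 37° C uptake of 1 μM [3H]-taurocholate in Na+ Ringer's buffer (145 mM Na). Beforehand, PTH and HepG2-NTCP cells had 24 h in PMM for NTCP induction and 2 h of compound or DMSO treatment.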
By IC50 is commonly meant the midpoint of a concentration-inhibition curve. Read a high IC50 as lower potency. `CCC1NC(=O)C(C2OC(Sc3cccc(N(C)Cc4ccccc4)c3)CC2C)N(C)C(=O)C(C(C)C)N(C)C(=O)C(CC(C)C)N(C)C(=O)C(CC(C)C)N(C)C(=O)C(C)NC(=O)C(C)NC(=O)C(CC(C)C)N(C)C(=O)C(C(C)C)NC(=O)C(CC(C)C)N(C)C(=O)CN(C)C1=O` (stereo not shown) [Compound 68]: the IC50 is 1000 to 100000 nM.
Molecule `CCC1NC(=O)C(C2OC(Oc3ccc(N4CCOCC4)cc3)CC2C)N(C)C(=O)C(C(C)C)N(C)C(=O)C(CC(C)C)N(C)C(=O)C(CC(C)C)N(C)C(=O)C(C)NC(=O)C(C)NC(=O)C(CC(C)C)N(C)C(=O)C(C(C)C)NC(=O)C(CC(C)C)N(C)C(=O)CN(C)C1=O` (stereo not shown) [Compound 3A-o] had an IC50 of 1000 to 100000 nM.
Consider `CCC1NC(=O)C(C2OC(Sc3cccc(OCCN(C)C)c3)CC2C)N(C)C(=O)C(C(C)C)N(C)C(=O)C(CC(C)C)N(C)C(=O)C(CC(C)C)N(C)C(=O)C(C)NC(=O)C(C)NC(=O)C(CC(C)C)N(C)C(=O)C(C(C)C)NC(=O)C(CC(C)C)N(C)C(=O)CN(C)C1=O` [Compound 14A, [2-((2R,3R)-5-(3-(2-(dimethylamino)ethoxy)phenylthio)-3-methyltetrahydrofuran-2-yl)-2-(methylamino)acetic acid]^1-cyclosporin A], for which the IC50 is 1000 to 100000 nM.
Turning to `CCC1NC(=O)C(C2OC(Oc3cccc(OCc4ccccc4F)c3)CC2C)N(C)C(=O)C(C(C)C)N(C)C(=O)C(CC(C)C)N(C)C(=O)C(CC(C)C)N(C)C(=O)C(C)NC(=O)C(C)NC(=O)C(CC(C)C)N(C)C(=O)C(C(C)C)NC(=O)C(CC(C)C)N(C)C(=O)CN(C)C1=O` (stereo not shown) [Compound 19A-o], the IC50 fell in the range of 1000 to 100000 nM.
`CCC1NC(=O)C(C2OC(Sc3cccc(OCC4CCN(C)CC4)c3)CC2C)N(C)C(=O)C(C(C)C)N(C)C(=O)C(CC(C)C)N(C)C(=O)C(CC(C)C)N(C)C(=O)C(C)NC(=O)C(C)NC(=O)C(CC(C)C)N(C)C(=O)C(C(C)C)NC(=O)C(CC(C)C)N(C)C(=O)CN(C)C1=O` (stereo not shown) [Compound 72]: the 50% inhibitory concentration (IC50) is 1000 to 100000 nM.
As for `CCC1NC(=O)C(C2OC(SCc3cccc(S(=O)(=O)NCC(C)C)c3)CC2C)N(C)C(=O)C(C(C)C)N(C)C(=O)C(CC(C)C)N(C)C(=O)C(CC(C)C)N(C)C(=O)C(C)NC(=O)C(C)NC(=O)C(CC(C)C)N(C)C(=O)C(C(C)C)NC(=O)C(CC(C)C)N(C)C(=O)CN(C)C1=O` (stereo not shown) [Compound 76A-s], the IC50 fell in the range of 1000 to 100000 nM.
In the case of `CCC1NC(=O)C(C2OC(SCc3cccc(S(=O)(=O)OCC(C)C)c3)CC2C)N(C)C(=O)C(C(C)C)N(C)C(=O)C(CC(C)C)N(C)C(=O)C(CC(C)C)N(C)C(=O)C(C)NC(=O)C(C)NC(=O)C(CC(C)C)N(C)C(=O)C(C(C)C)NC(=O)C(CC(C)C)N(C)C(=O)CN(C)C1=O` (stereo not shown) [Compound 75A-s], the IC50 was 1000 to 100000 nM.
Take `CCC1NC(=O)C(C2OC(Oc3cc(OC)cc(OC)c3)CC2C)N(C)C(=O)C(C(C)C)N(C)C(=O)C(CC(C)C)N(C)C(=O)C(CC(C)C)N(C)C(=O)C(C)NC(=O)C(C)NC(=O)C(CC(C)C)N(C)C(=O)C(C(C)C)NC(=O)C(CC(C)C)N(C)C(=O)CN(C)C1=O` [Compound 38A-o, [2-((2R,3R)-5-(3,5-dimethoxphenoxy)-3-methyltetrahydrofuran-2-yl)-2-(methylamino)acetic acid]^1-cyclosporin A]: the IC50 fell in the range of 1000 to 100000 nM.
Consider `CCC1NC(=O)C(C2OC(Oc3cc(Cl)cc(OCc4ccccc4)c3)CC2C)N(C)C(=O)C(C(C)C)N(C)C(=O)C(CC(C)C)N(C)C(=O)C(CC(C)C)N(C)C(=O)C(C)NC(=O)C(C)NC(=O)C(CC(C)C)N(C)C(=O)C(C(C)C)NC(=O)C(CC(C)C)N(C)C(=O)CN(C)C1=O` (stereo not shown) [Compound 63-o], for which the IC50 lay in the range of 1000 to 100000 nM.
For `CCC1NC(=O)C(C2OC(SC(C)c3ccccc3)CC2C)N(C)C(=O)C(C(C)C)N(C)C(=O)C(CC(C)C)N(C)C(=O)C(CC(C)C)N(C)C(=O)C(C)NC(=O)C(C)NC(=O)C(CC(C)C)N(C)C(=O)C(C(C)C)NC(=O)C(CC(C)C)N(C)C(=O)CN(C)C1=O` (stereo not shown) [Compound 78A-s], the IC50 fell in the range of 1000 to 100000 nM.

The same experiment, now with this note: IC50, given as a range; assay not given.
`CCC1NC(=O)C(C2OC(SCc3ccc(Cl)cc3)CC2C)N(C)C(=O)C(C(C)C)N(C)C(=O)C(CC(C)C)N(C)C(=O)C(CC(C)C)N(C)C(=O)C(C)NC(=O)C(C)NC(=O)C(CC(C)C)N(C)C(=O)C(C(C)C)NC(=O)C(CC(C)C)N(C)C(=O)CN(C)C1=O` (stereo not shown) [Compound 86A-s] showed an IC50 of 1000 to 100000 nM.

Staying with this experiment, now noted: given as a range, marked * (asterisk not explained).
Turning to `CCC1NC(=O)C(C2OC(Oc3cc(OCCOC)cc(OCCOC)c3)CC2C)N(C)C(=O)C(C(C)C)N(C)C(=O)C(CC(C)C)N(C)C(=O)C(CC(C)C)N(C)C(=O)C(C)NC(=O)C(C)NC(=O)C(CC(C)C)N(C)C(=O)C(C(C)C)NC(=O)C(CC(C)C)N(C)C(=O)CN(C)C1=O` (stereo not shown) [Compound 73-o], the IC50 was 1000 to 100000 nM.
Still for that read-out and setting: the figure for `CCC1NC(=O)C(C2OC(Oc3cc(OC)cc(OCC4CCN(C)CC4)c3)CC2C)N(C)C(=O)C(C(C)C)N(C)C(=O)C(CC(C)C)N(C)C(=O)C(CC(C)C)N(C)C(=O)C(C)NC(=O)C(C)NC(=O)C(CC(C)C)N(C)C(=O)C(C(C)C)NC(=O)C(CC(C)C)N(C)C(=O)CN(C)C1=O` (stereo not shown) [Compound 70-o] is 1000 to 100000 nM; for `CCC1NC(=O)C(C2OC(Oc3cccc(OCc4ccn(C)c(=O)c4)c3)CC2C)N(C)C(=O)C(C(C)C)N(C)C(=O)C(CC(C)C)N(C)C(=O)C(CC(C)C)N(C)C(=O)C(C)NC(=O)C(C)NC(=O)C(CC(C)C)N(C)C(=O)C(C(C)C)NC(=O)C(CC(C)C)N(C)C(=O)CN(C)C1=O` (stereo not shown) [Compound 16A-o] it is 1000 to 100000 nM; for `CCC1NC(=O)C(C2OC(Oc3cccc(OCc4ccc(F)cc4C)c3)CC2C)N(C)C(=O)C(C(C)C)N(C)C(=O)C(CC(C)C)N(C)C(=O)C(CC(C)C)N(C)C(=O)C(C)NC(=O)C(C)NC(=O)C(CC(C)C)N(C)C(=O)C(C(C)C)NC(=O)C(CC(C)C)N(C)C(=O)CN(C)C1=O` (stereo not shown) [Compound 24A-o] it is 1000 to 100000 nM.

The experiment is the same for the next values; noted with them: given as a range; assay not given.
`CCC1NC(=O)C(C2OC(OCc3cccc(Cl)c3OC)CC2C)N(C)C(=O)C(C(C)C)N(C)C(=O)C(CC(C)C)N(C)C(=O)C(CC(C)C)N(C)C(=O)C(C)NC(=O)C(C)NC(=O)C(CC(C)C)N(C)C(=O)C(C(C)C)NC(=O)C(CC(C)C)N(C)C(=O)CN(C)C1=O` (single isomer, unassigned) [Compound 88A]: the IC50 fell in the range of 1 to 1000 nM.
`CCC1NC(=O)C(C2OC(Sc3cc(OC)cc(OC)c3)CC2C)N(C)C(=O)C(C(C)C)N(C)C(=O)C(CC(C)C)N(C)C(=O)C(CC(C)C)N(C)C(=O)C(C)NC(=O)C(C)NC(=O)C(CC(C)C)N(C)C(=O)C(C(C)C)NC(=O)C(CC(C)C)N(C)C(=O)CN(C)C1=O` [Compound 38A, [2-((2R,3R)-5-(3,5-dimethoxyphenylthio)-3-methyltetrahydrofuran-2-yl)-2-(methylamino)acetic acid]^1-cyclosporin A] showed an IC50 of 1 to 1000 nM.
The molecule `CCC1NC(=O)C(C2OC(Sc3cccc(NCc4ccccc4)c3)CC2C)N(C)C(=O)C(C(C)C)N(C)C(=O)C(CC(C)C)N(C)C(=O)C(CC(C)C)N(C)C(=O)C(C)NC(=O)C(C)NC(=O)C(CC(C)C)N(C)C(=O)C(C(C)C)NC(=O)C(CC(C)C)N(C)C(=O)CN(C)C1=O` [Compound 48A, [2-((2R,3R)-5-(3-(benzylamino)phenylthio)-3-methyltetrahydrofuran-2-yl)-2-(methylamino)acetic acid]^1-cyclosporin A] came in with a 50% inhibitory concentration (IC50) of 1 to 1000 nM.
In turn, `CCC1NC(=O)C(C2OC(OCc3ccccc3)CC2C)N(C)C(=O)C(C(C)C)N(C)C(=O)C(CC(C)C)N(C)C(=O)C(CC(C)C)N(C)C(=O)C(C)NC(=O)C(C)NC(=O)C(CC(C)C)N(C)C(=O)C(C(C)C)NC(=O)C(CC(C)C)N(C)C(=O)CN(C)C1=O` [Compound 74A, [2-((2R,3R)-5-(benzyloxy)-3-methyltetrahydrofuran-2-yl)-2-(methylamino)acetic acid]^1-cyclosporin A] displayed an IC50 of 1 to 1000 nM.
`CCC1NC(=O)C(C2OC(Sc3cc(Cl)cc(OC)c3)CC2C)N(C)C(=O)C(C(C)C)N(C)C(=O)C(CC(C)C)N(C)C(=O)C(CC(C)C)N(C)C(=O)C(C)NC(=O)C(C)NC(=O)C(CC(C)C)N(C)C(=O)C(C(C)C)NC(=O)C(CC(C)C)N(C)C(=O)CN(C)C1=O` [Compound 59A, [2-((2R,3R)-5-(3-chloro-5-methoxyphenylthio)-3-methyltetrahydrofuran-2-yl)-2-(methylamino)acetic acid]^1-cyclosporin A] showed an IC50 of 1 to 1000 nM.
The same measure, in the same setting: the result for `CCC1NC(=O)C(C2OC(Sc3ccc(OC)cc3)CC2C)N(C)C(=O)C(C(C)C)N(C)C(=O)C(CC(C)C)N(C)C(=O)C(CC(C)C)N(C)C(=O)C(C)NC(=O)C(C)NC(=O)C(CC(C)C)N(C)C(=O)C(C(C)C)NC(=O)C(CC(C)C)N(C)C(=O)CN(C)C1=O` [Compound 26A, [2-((2R,3R)-5-(4-methoxyphenylthio)-3-methyltetrahydrofuran-2-yl)-2-(methylamino)acetic acid]^1-cyclosporin A] reads 1 to 1000 nM.
For the molecule `CCC1NC(=O)C(C2OC(OCc3cc(Cl)cc(Cl)c3)CC2C)N(C)C(=O)C(C(C)C)N(C)C(=O)C(CC(C)C)N(C)C(=O)C(CC(C)C)N(C)C(=O)C(C)NC(=O)C(C)NC(=O)C(CC(C)C)N(C)C(=O)C(C(C)C)NC(=O)C(CC(C)C)N(C)C(=O)CN(C)C1=O` [Compound 91B, [2-((2R,3R)-5-(3,5-dichlorobenzyloxy)-3-methyltetrahydrofuran-2-yl)-2-(methylamino)acetic acid]^1-cyclosporin A], the IC50 was 1 to 1000 nM.
